Data taken from PubChem BioAssay (NCI).
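Each compound was tested at five concentrations against cells in 96-well plates for 48 hours. GI50 = concentration required for 50% inhibition of growth. TGI: total growth inhibition.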

How the values were obtained:
Test in all cases: NCI-60 cell line screen, 48 h
SF-295 CNS = tested on: SF-295 CNS
RXF 393 renal = tested on: RXF 393 renal
MDA-MB-435 = tested on: MDA-MB-435
MCF7 breast = tested on: MCF7 breast
SK-OV-3 ovarian = tested on: SK-OV-3 ovarian
CAKI-1 renal = tested on: CAKI-1 renal
COLO 205 colon = tested on: COLO 205 colon
786-0 renal = tested on: 786-0 renal
SK-MEL-28 melanoma = tested on: SK-MEL-28 melanoma
HCT-116 colon = tested on: HCT-116 colon
SR leukemia = tested on: SR leukemia
U251 CNS = tested on: U251 CNS
LOX IMVI melanoma = tested on: LOX IMVI melanoma
HOP-92 NSCLC = tested on: HOP-92 NSCLC
SNB-19 CNS = tested on: SNB-19 CNS
HL-60(TB) leukemia = tested on: HL-60(TB) leukemia
SK-MEL-5 melanoma = tested on: SK-MEL-5 melanoma
M14 melanoma = tested on: M14 melanoma
K-562 leukemia = tested on: K-562 leukemia
OVCAR-4 ovarian = tested on: OVCAR-4 ovarian
NCI-H23 lung = tested on: NCI-H23 lung
A549 NSCLC = tested on: A549 NSCLC
SK-MEL-2 melanoma = tested on: SK-MEL-2 melanoma
CCRF-CEM leukemia = tested on: CCRF-CEM leukemia
HCT-15 colon = tested on: HCT-15 colon
SF-268 CNS = tested on: SF-268 CNS
NCI-H460 lung = tested on: NCI-H460 lung
OVCAR-8 ovarian = tested on: OVCAR-8 ovarian

C/C=C(/C)C(=O)OC1C=C(CO)C(=O)C(OC(=O)C(C)(O)C(C)Cl)C1C(C)C (stereo not given)
GI50 (SF-295 CNS): 1940 nM | TGI (SF-295 CNS): 4790 nM | GI50 (RXF 393 renal): 1600 nM | TGI (RXF 393 renal): 3130 nM | GI50 (MDA-MB-435): 1350 nM | TGI (MDA-MB-435): 2830 nM | GI50 (MCF7 breast): 552 nM | TGI (MCF7 breast): 3090 nM | GI50 (SK-OV-3 ovarian): 4500 nM | TGI (SK-OV-3 ovarian): 14900 nM | GI50 (CAKI-1 renal): 1610 nM | TGI (CAKI-1 renal): 2980 nM | GI50 (COLO 205 colon): 1300 nM | TGI (COLO 205 colon): 2850 nM | GI50 (786-0 renal): 1670 nM | TGI (786-0 renal): 3120 nM | GI50 (SK-MEL-28 melanoma): 1460 nM | TGI (SK-MEL-28 melanoma): 2980 nM | GI50 (HCT-116 colon): 1070 nM | TGI (HCT-116 colon): 2490 nM | GI50 (SR leukemia): 255 nM | TGI (SR leukemia): 2160 nM | GI50 (U251 CNS): 1380 nM | TGI (U251 CNS): 2800 nM | GI50 (LOX IMVI melanoma): 1310 nM | TGI (LOX IMVI melanoma): 2820 nM | GI50 (HOP-92 NSCLC): 1770 nM | TGI (HOP-92 NSCLC): 3570 nM | GI50 (SNB-19 CNS): 1480 nM | TGI (SNB-19 CNS): 2910 nM | GI50 (HL-60(TB) leukemia): 358 nM | TGI (HL-60(TB) leukemia): 5740 nM | GI50 (SK-MEL-5 melanoma): 1380 nM | TGI (SK-MEL-5 melanoma): 2750 nM | GI50 (M14 melanoma): 1600 nM | TGI (M14 melanoma): 3500 nM | GI50 (K-562 leukemia): 396 nM | TGI (K-562 leukemia): 12500 nM | GI50 (OVCAR-4 ovarian): 1870 nM | TGI (OVCAR-4 ovarian): 3950 nM | GI50 (NCI-H23 lung): 1840 nM | TGI (NCI-H23 lung): 4420 nM | GI50 (A549 NSCLC): 2810 nM | TGI (A549 NSCLC): 9360 nM | GI50 (SK-MEL-2 melanoma): 2060 nM | TGI (SK-MEL-2 melanoma): 4290 nM | GI50 (CCRF-CEM leukemia): 327 nM | TGI (CCRF-CEM leukemia): 2050 nM | GI50 (HCT-15 colon): 772 nM | TGI (HCT-15 colon): 2360 nM | GI50 (SF-268 CNS): 2190 nM | TGI (SF-268 CNS): 5080 nM | GI50 (NCI-H460 lung): 2280 nM | TGI (NCI-H460 lung): 8620 nM | GI50 (OVCAR-8 ovarian): 1560 nM
